The values below come from patent US5455161A, “Method for the monitoring of multiple anticancer drug resistance” (priority 1992, dated 1995).

Numbered stars: 1 amine (or outer) side, 2 acyl side, 3 side chain; on linkers, the order of the positions; unused ones are H or OH. Bridge positions count the residues as written; N and C are the ends. Square brackets hold non-standard residues; d marks the D form. Peptide text beside a SMILES is read from it. I, II: the chains in the order shown. Actinocin(9to1) = Cc1c2oc3c(C)ccc(C(=O)[*:1])c3nc-2c(C(=O)[*:2])c(N)c1=O; NMeV = CN[C@H](C(=O)O)C(C)C; Sar = CNCC(=O)O

For experiment [1], the system named is T19 cells. Briefly: ODC (ornithine decarboxylase activity) assay of drug resistance, multidrug resistant T19 cells. The format is cell-based, Chinese hamster. The following applies: for IC50: Cricetulus griseus, read-out: IC50 (ODC assay) T19; for Resistance (-fold), ODC assay, T19 versus AA8: T19/AA8 ratio of IC50. The method, then:
(§1) The protein determinations were carried out according to the method of Bradford (Anal.Biochem. 72, 248-54, 1976), using lysozyme, triple crystallization and dialysis, as a standard.
(§2) Monolayers of parental AA8 and multidrug resistant T19 cells grown for 4 days at 37° C., were exposed to various concentrations of the antimitotic agent colchinine, for 6 hours, 18 hours and 48 hours and then the activity of ornithine decarboxylase was determined.
(§3) In the same manner, this assay was tested with various anticancer drugs of various structure and distinct mechanisms of action. The following cytotoxic agents were tested: vinca alkaloids, anthracyclines, epipodophyllotoxins, actinomycin D and antifolates.

Experiment [2] deals with AA8 cells. Briefly: ODC (ornithine decarboxylase activity) assay of cellular drug sensitivity, wild type AA8 cells. The settings on record: for IC50: Cricetulus griseus, read-out: IC50 (ODC assay) AA8. The format is cell-based, Chinese hamster. The protocol:
as §1, §2, §3

Experiment [3] relates to AA8 cells. The experiment is described as follows: cells. The format is cell-based, Chinese hamster. The following applies: for IC50: Cricetulus griseus, CHO-AA8, read-out: LD50 (clonogenic assay) AA8. The method, then: (§4) Clonogenic cytotoxic assays were performed with AA8 and T19 cells exposed to various concentrations of colchinine for 6 hours, 18 hours, 48 hours or continuously, and each time the clonal surviving fractions were determined.

In experiment [4] the test system is T19 cells. The experiment is described as follows: cells. The format is cell-based, Chinese hamster. The method, then: as §4
The target in experiment [5] is T1, ornithine decarboxylase from AA8 cells (Cricetulus griseus, UniProt P14019).
T1 sequence (P14019 1-455): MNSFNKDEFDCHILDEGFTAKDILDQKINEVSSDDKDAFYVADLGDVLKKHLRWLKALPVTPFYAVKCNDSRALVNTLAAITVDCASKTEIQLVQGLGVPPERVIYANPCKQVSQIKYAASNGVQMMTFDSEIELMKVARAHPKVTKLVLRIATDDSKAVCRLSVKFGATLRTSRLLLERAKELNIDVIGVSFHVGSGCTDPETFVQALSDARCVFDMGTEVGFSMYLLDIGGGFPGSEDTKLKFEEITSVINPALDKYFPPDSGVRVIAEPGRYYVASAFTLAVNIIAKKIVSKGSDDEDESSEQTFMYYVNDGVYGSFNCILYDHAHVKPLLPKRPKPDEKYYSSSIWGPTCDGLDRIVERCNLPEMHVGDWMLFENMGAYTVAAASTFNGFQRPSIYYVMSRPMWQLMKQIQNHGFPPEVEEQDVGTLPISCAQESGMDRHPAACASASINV
Briefly: biochemical. The following applies: IC50, concentration required to reduce the ornithine decarboxylase by 50%.
Description: Monolayer cells grown in the absence and presence of a known cytotoxic agent, were washed twice with 10 mls of phosphate-buffered saline and suspended in a petri dish (0.5 ml/10 cm) in an ice-cold ornithine decarboxylase buffer containinig 50 mM of Tris-Cl, pH=7.3, 0.1 mM ethylene diamine tetraacetic acid, 50 uM pyridoxal 5'-phosphate (Sigma) and 5 mM of dithiothreitol. The cells were lysed under three cycles of freezing in liquid nitrogen and thawing at 37° C. The cell lysates were then centrifuged at 15,000 g for 15 minutes at 4° C., the supernatant liquid was collected and used in the assay for the ornithine decarboxylase activity. The assay was based on the Djurhuss method that utilizes a strong cation-exchange paper (Anal. Biochem. 113:352-5, 1981). […] After incubation for 60 minutes at 37° C. under agitation, the reaction mixture was spotted onto a strip of P81 cellulose phosphate paper and dried. After washing in a solution of 0.1M ammonium hydroxide and drying,liquid scintillation counting was performed. In similar manner, blank values were determined by using 80 ul of ornithine decarboxylase buffer, instead of the cytosolic cell extract.

Where [6] appears, read: incubation time 18 hr, mean of two to four independent experiments.
Where [7] appears, read: CHO-AA8, incubation time 18 hr, mean of two to four independent experiments.
The mark [8] stands for this setting: Cricetulus griseus, read-out: LD50 (clonogenic assay) T19.
Where [9] appears, read: incubation time 48 hr, mean of two to four independent experiments.
[10] abbreviates: CHO-AA8, incubation time 48 hr, mean of two to four independent experiments.

Take `CC[C@]1(O)C[C@H]2CN(CCc3c([nH]c4ccccc34)[C@@](C(=O)OC)(c3cc4c(cc3OC)N(C=O)[C@H]3[C@@](O)(C(=O)OC)[C@H](OC(C)=O)[C@]5(CC)C=CCN6CC[C@]43[C@@H]65)C2)C1` [Vincristine]: the IC50 with T19 cells [1] (setting [6]) was 1530 nM; in the experiment with AA8 cells [2] (setting [7]), 79.6 nM; in the experiment with AA8 cells [3], 8.2 nM; with T19 cells [4] (setting [8]), 229 nM. For the same compound, the “Resistance (-fold), ODC assay, T19 versus AA8” value (from here on “Resistance (-fold), ODC assay”) with T19 cells [1] (incubation time 18 hr) is 19.2 -fold. Moreover, in the experiment on T19 cells [4] (hamster, t19 vs aa8 cells), the “Resistance (-fold), clonogenic assay, T19 versus AA8” value (from here on “Resistance (-fold), clonogenic assay”) is given as 28.1 -fold.
Turning to `COc1cccc2c1C(=O)c1c(O)c3c(c(O)c1C2=O)C[C@@](O)(C(C)=O)C[C@@H]3O[C@H]1C[C@H](N)[C@H](O)[C@H](C)O1` [Daunorubicin], the IC50 with T19 cells [1] (setting [9]) came to 1860 nM; in the experiment with AA8 cells [2] (setting [10]), 29.6 nM; in the experiment on AA8 cells [3], 8.6 nM; with T19 cells [4] (setting [8]), 726 nM. In the experiment on T19 cells [1] (incubation time 48 hr), the “Resistance (-fold), ODC assay” value was 63.0 -fold. Moreover, the “Resistance (-fold), clonogenic assay” value with T19 cells [4] (hamster, t19 vs aa8 cells) is given as 84.1 -fold.
Regarding `COc1cc2c(c(OC)c1OC)-c1ccc(OC)c(=O)cc1[C@@H](NC(C)=O)CC2` [Colchicine], the “ornithine decarboxylase activity with increased drug concentrations” value with AA8 cells [2] (exposure 6, 18 and 48 hours) was “dose-dependent decrease”. Moreover, the “LD50 (clonogenic assay) AA8” value in the experiment on AA8 cells [3] was 100 nM. Besides, the IC50 in the experiment with T19 cells [4] (read-out: LD50 (50% lethal dose), clonal survival, t19 cells) turned out to be 6700 nM.
For the compound `Cc1nc(N)nc(N)c1-c1ccc(Cl)c(Cl)c1` [Metoprine], the IC50 was 53.2 nM with T19 cells [1] (setting [9]), 13.8 nM with AA8 cells [2] (setting [10]), 12.6 nM in the experiment with AA8 cells [3] and 33.7 nM in the experiment on T19 cells [4] (setting [8]). Further, the “Resistance (-fold), ODC assay” value in the experiment with T19 cells [1] (incubation time 48 hr) is recorded as 3.9 -fold. Further, the “Resistance (-fold), clonogenic assay” value in the experiment with T19 cells [4] (hamster, t19 vs aa8 cells) is 2.7 -fold.
As to `Cc1c2oc3c(C)ccc(C(=O)N[C@@H]4C(=O)N[C@H](C(C)C)C(=O)N5CCC[C@H]5C(=O)N(C)CC(=O)N(C)[C@@H](C(C)C)C(=O)O[C@@H]4C)c3nc-2c(C(=O)N[C@@H]2C(=O)N[C@H](C(C)C)C(=O)N3CCC[C@H]3C(=O)N(C)CC(=O)N(C)[C@@H](C(C)C)C(=O)O[C@@H]2C)c(N)c1=O` [Actinomycin D] (I: T[dV]P[Sar][NMeV] / II: T[dV]P[Sar][NMeV]; ester I:1-I:C, II:1-II:C; linker I:N-II:N via Actinocin(9to1)), the IC50 stood at 42 nM with T19 cells [1] (18 h); 3.7 nM in the experiment on AA8 cells [2] (CHO-AA8, 18 h); 2.2 nM with AA8 cells [3]; 49.7 nM in the experiment on T19 cells [4] (setting [8]). Further, the “Resistance (-fold), ODC assay” value in the experiment on T19 cells [1] (incubation time 18 hr) is given as 11.3 -fold. Further, in the experiment on T19 cells [4] (ratio of LD50 T19/AA8), the “Resistance (-fold), clonogenic assay” value is 22.6 -fold.
For `COc1ccc(OC)c(Cc2cnc3nc(N)nc(N)c3c2C)c1` [Piritrexim], the IC50 was 127 nM in the experiment with T19 cells [1] (setting [9]), 5.8 nM in the experiment with AA8 cells [2] (setting [10]), 4.6 nM with AA8 cells [3] and 113 nM in the experiment with T19 cells [4] (setting [8]). Further, the “Resistance (-fold), ODC assay” value in the experiment with T19 cells [1] (incubation time 48 hr) is on record as 22.0 -fold. Moreover, the “Resistance (-fold), clonogenic assay” value with T19 cells [4] (ratio of LD50 T19/AA8) is 24.5 -fold.
`COc1cc([C@@H]2c3cc4c(cc3[C@@H](O[C@@H]3O[C@@H]5CO[C@@H](C)O[C@H]5[C@H](O)[C@H]3O)[C@H]3COC(=O)[C@H]23)OCO4)cc(OC)c1O` [Etoposide]: the IC50 in the experiment on T19 cells [1] (48 h) came out at 4180 nM; in the experiment with AA8 cells [2] (CHO-AA8, 48 h), 366 nM; in the experiment on AA8 cells [3], 265 nM; in the experiment on T19 cells [4] (setting [8]), 4200 nM. Besides, the “Resistance (-fold), ODC assay” value in the experiment on T19 cells [1] (incubation time 48 hr) is listed as 11.4 -fold. In addition, in the experiment on T19 cells [4] (ratio of LD50 T19/AA8), the “Resistance (-fold), clonogenic assay” value is given as 15.9 -fold.
Consider `CN(Cc1cnc2nc(N)nc(N)c2n1)c1ccc(C(=O)N[C@@H](CCC(=O)O)C(=O)O)cc1` [Methotrexate], for which the IC50 in the experiment on T19 cells [1] (setting [9]) was found to be 63.8 nM; with AA8 cells [2] (setting [10]), 56.5 nM; in the experiment on AA8 cells [3], 25.1 nM; in the experiment on T19 cells [4] (setting [8]), 30.6 nM. The “Resistance (-fold), ODC assay” value in the experiment on T19 cells [1] (incubation time 48 hr) is given as 1.1 -fold. Further, in the experiment with T19 cells [4] (hamster, t19 vs aa8 cells), the “Resistance (-fold), clonogenic assay” value is listed as 1.2 -fold.
As for `CC[C@]1(O)C[C@@H]2CN(CCc3c([nH]c4ccccc34)[C@@](C(=O)OC)(c3cc4c(cc3OC)N(C)[C@H]3[C@@](O)(C(=O)OC)[C@H](OC(C)=O)[C@]5(CC)C=CCN6CC[C@]43[C@@H]65)C2)C1` [Vinblastine], the IC50 in the experiment on T19 cells [1] (setting [6]) was 275 nM; in the experiment on AA8 cells [2] (setting [7]) it was 15.9 nM; with AA8 cells [3], 3 nM; in the experiment on T19 cells [4] (setting [8]), 80 nM. The “Resistance (-fold), ODC assay” value in the experiment with T19 cells [1] (incubation time 18 hr) is 17.3 -fold. For the same compound, in the experiment on T19 cells [4] (hamster, t19 vs aa8 cells), the “Resistance (-fold), clonogenic assay” value is reported as 26.7 -fold.
Turning to `COc1cc(NCc2ccc3nc(N)nc(N)c3c2C)cc(OC)c1OC` [Trimetrexate], the IC50 in the experiment with T19 cells [1] (setting [9]) was determined as 72.4 nM; in the experiment on AA8 cells [2] (setting [10]) it was 2.9 nM; in the experiment on AA8 cells [3], 2.4 nM; in the experiment with T19 cells [4] (setting [8]), 68.6 nM. Further, in the experiment with T19 cells [1] (incubation time 48 hr), the “Resistance (-fold), ODC assay” value was 25.0 -fold. In the experiment with T19 cells [4] (hamster, t19 vs aa8 cells), the “Resistance (-fold), clonogenic assay” value is on record as 28.6 -fold.
Regarding `COc1cccc2c1C(=O)c1c(O)c3c(c(O)c1C2=O)C[C@@](O)(C(=O)CO)C[C@@H]3O[C@H]1C[C@H](N)[C@H](O)[C@H](C)O1` [Doxorubicin], the IC50 in the experiment with T19 cells [1] (setting [9]) was 3580 nM; with AA8 cells [2] (setting [10]), 55 nM; with AA8 cells [3] it was 40 nM; in the experiment with T19 cells [4] (setting [8]) it was 8450 nM. Moreover, the “Resistance (-fold), ODC assay” value with T19 cells [1] (incubation time 48 hr) is reported as 65.0 -fold.
On to `NCCCC(N)(C(=O)O)C(F)F` (racemic) [DMFO, DL-o-difluoromethylornithine], for which the IC50 turned out to be 5000 nM in experiment [5] (extract of AA8-induced cells (received fresh serum-containing medium), 2x10^7 cells) and 1100 nM in experiment [5] (extract of non-induced AA8 cells (no fresh medium), same number of cells).
Take `COc1ccc(C[C@H](N)C(=O)N[C@H]2[C@@H](O)[C@H](n3cnc4c(N(C)C)ncnc43)O[C@@H]2CO)cc1` [Puromycin]: the IC50 was 315 nM in the experiment on T19 cells [1] (setting [9]), 10.5 nM in the experiment on AA8 cells [2] (setting [10]), 4.5 nM in the experiment with AA8 cells [3] and 116 nM in the experiment on T19 cells [4] (setting [8]). For the same compound, in the experiment with T19 cells [1] (incubation time 48 hr), the “Resistance (-fold), ODC assay” value is recorded as 30.0 -fold. Further, the “Resistance (-fold), clonogenic assay” value in the experiment with T19 cells [4] (hamster, t19 vs aa8 cells) is 25.8 -fold.
